Active and inactive are the calls of the source. The rule behind the calls is not given here.
System: CCRIS mutagenicity, Ames/micronucleus/aberration tests
Assay: CCRIS mutagenicity studies
[1] = Test System: AMES SALMONELLA TYPHIMURIUM, Strain/Indicator: TA98, Metabolic Activation: NONE, Method: STANDARD PLATE
[2] = Test System: AMES SALMONELLA TYPHIMURIUM, Strain/Indicator: TA98, Metabolic Activation: RAT, LIVER, S-9, AROCLOR 1254, Method: STANDARD PLATE
[3] = Test System: AMES SALMONELLA TYPHIMURIUM, Strain/Indicator: TA100, Metabolic Activation: NONE, Method: STANDARD PLATE
[4] = Test System: AMES SALMONELLA TYPHIMURIUM, Strain/Indicator: TA100, Metabolic Activation: RAT, LIVER, S-9, AROCLOR 1254, Method: STANDARD PLATE
[5] = Test System: AMES SALMONELLA TYPHIMURIUM, Strain/Indicator: TA100, Metabolic Activation: NONE, Method: PREINCUBATION
[6] = Test System: AMES SALMONELLA TYPHIMURIUM, Strain/Indicator: TA102, Metabolic Activation: NONE, Method: STANDARD PLATE
[7] = Test System: Mouse lymphoma, Strain/Indicator: L5178Y (tk+/tk-), Metabolic Activation: None, Method: Suspension/plate
[8] = Test System: Mouse lymphoma, Strain/Indicator: L5178Y (tk+/tk-), Metabolic Activation: Rat, Liver, S-9, Aroclor 1254, Method: Suspension/plate
[9] = Test System: AMES SALMONELLA TYPHIMURIUM, Strain/Indicator: TA1535, Metabolic Activation: NONE, Method: PREINCUBATION

O=C(Cl)CCl
mutagenic call (End Point: IN VITRO CHROMOSOMAL ABERRATIONS, Test System: CHINESE HAMSTER LUNG (CHL), Metabolic Activation: NONE): inactive; negative
mutagenic call (End Point: IN VITRO CHROMOSOMAL ABERRATIONS, Test System: CHINESE HAMSTER LUNG (CHL), Metabolic Activation: RAT, LIVER, S-9, KC-400): inactive; negative

CC(C)C1(C)N=C(c2ncccc2C(=O)O)NC1=O (configuration not stated)
mutagenic call (End Point: IN VIVO MICRONUCLEUS, Test System: BONE MARROW POLYCHROMATIC ERYTHROCYTES, Species: MOUSE, Strain/Sex: SWISS/MALE, FEMALE, Route: IP 2X IN AQUEOUS SUSPENSION WITHIN 24 HR): inactive; negative

Cc1cc(C)c2ccc3ccccc3c2c1
mutagenic call [1]: inactive; negative
mutagenic call [2]: active; positive
mutagenic call [3]: inactive; negative
mutagenic call [4]: active; positive

O=[N+]([O-])c1ccc2cn[nH]c2c1
mutagenic call [1]: active; positive

O=C1C=C2C(=CCOC2O)O1 (configuration not stated)
mutagenic call (End Point: In vitro micronucleus, Test System: Human hepatoma HepG2 cells, Metabolic Activation: None): active; positive. depletion of glutathione increased patulin-induced micronuclei frequen
mutagenic call (Test System: AMES SALMONELLA TYPHIMURIUM, Strain/Indicator: TA98, Metabolic Activation: RAT, LIVER, MICROSOMES, PHENOBARBITAL, Method: STANDARD PLATE): inactive; negative
mutagenic call [5]: inactive; negative
mutagenic call (Test System: AMES SALMONELLA TYPHIMURIUM, Strain/Indicator: TA100, Metabolic Activation: RAT, LIVER, MICROSOMES, PHENOBARBITAL, Method: STANDARD PLATE): inactive; negative
mutagenic call (Test System: AMES SALMONELLA TYPHIMURIUM, Strain/Indicator: TA100, Metabolic Activation: RAT, LIVER, S-9, PHENOBARBITAL, Method: PREINCUBATION): inactive; negative
mutagenic call [6]: inactive; negative
mutagenic call (Test System: AMES SALMONELLA TYPHIMURIUM, Strain/Indicator: TA102, Metabolic Activation: RAT, LIVER, S-9, AROCLOR 1254, Method: STANDARD PLATE): inactive; negative

O.O.O.O.O.O.O.[Cl-].[Cl-].[Cl-].[Fe+3]
mutagenic call [6]: inactive; negative
mutagenic call [7]: inactive; negative
mutagenic call [8]: inactive; inconclusive (previous evaluation: negative)

C[n+]1c2ccccc2cc2ccc(N)cc21
mutagenic call [9]: inactive; negative
mutagenic call (Test System: AMES SALMONELLA TYPHIMURIUM, Strain/Indicator: TA1535, Metabolic Activation: RAT, LIVER, S-9, TETRACHLOROBIPHENYL, Method: PREINCUBATION): inactive; negative
mutagenic call (Test System: AMES SALMONELLA TYPHIMURIUM, Strain/Indicator: TA1537, Metabolic Activation: NONE, Method: PREINCUBATION): active; positive
mutagenic call (Test System: AMES SALMONELLA TYPHIMURIUM, Strain/Indicator: TA1537, Metabolic Activation: RAT, LIVER, S-9, TETRACHLOROBIPHENYL, Method: PREINCUBATION): active; positive
mutagenic call (Test System: AMES SALMONELLA TYPHIMURIUM, Strain/Indicator: TA1538, Metabolic Activation: NONE, Method: PREINCUBATION): inactive; negative
mutagenic call (Test System: AMES SALMONELLA TYPHIMURIUM, Strain/Indicator: TA1538, Metabolic Activation: RAT, LIVER, S-9, TETRACHLOROBIPHENYL, Method: PREINCUBATION): active; positive
mutagenic call (Test System: AMES SALMONELLA TYPHIMURIUM, Strain/Indicator: TA1977, Metabolic Activation: NONE, Method: PREINCUBATION): active; positive
mutagenic call (Test System: AMES SALMONELLA TYPHIMURIUM, Strain/Indicator: TA1977, Metabolic Activation: RAT, LIVER, S-9, TETRACHLOROBIPHENYL, Method: PREINCUBATION): active; positive
mutagenic call (Test System: AMES SALMONELLA TYPHIMURIUM, Strain/Indicator: TA1978, Metabolic Activation: RAT, LIVER, S-9, TETRACHLOROBIPHENYL, Method: PREINCUBATION): inactive; negative

COc1ccc2c3c1O[C@H]1[C@@H](O)C=C[C@H]4[C@@H](C2)N(C)CC[C@@]341
mutagenic call (Test System: AMES SALMONELLA TYPHIMURIUM, Strain/Indicator: TA97, Metabolic Activation: HAMSTER, LIVER, S-9, AROCLOR 1254 (10 OR 30%), Method: PREINCUBATION): inactive; negative
mutagenic call (Test System: AMES SALMONELLA TYPHIMURIUM, Strain/Indicator: TA97, Metabolic Activation: NONE, Method: PREINCUBATION): inactive; negative
mutagenic call (Test System: AMES SALMONELLA TYPHIMURIUM, Strain/Indicator: TA97, Metabolic Activation: RAT, LIVER, S-9, AROCLOR 1254 (10 OR 30%), Method: PREINCUBATION): inactive; negative
mutagenic call (Test System: AMES SALMONELLA TYPHIMURIUM, Strain/Indicator: TA98, Metabolic Activation: HAMSTER, LIVER, S-9, AROCLOR 1254 (10 OR 30%), Method: PREINCUBATION): inactive; negative
mutagenic call (Test System: AMES SALMONELLA TYPHIMURIUM, Strain/Indicator: TA98, Metabolic Activation: NONE, Method: PREINCUBATION): inactive; negative
mutagenic call (Test System: AMES SALMONELLA TYPHIMURIUM, Strain/Indicator: TA98, Metabolic Activation: RAT, LIVER, S-9, AROCLOR 1254 (10 OR 30%), Method: PREINCUBATION): inactive; negative
mutagenic call (Test System: AMES SALMONELLA TYPHIMURIUM, Strain/Indicator: TA100, Metabolic Activation: HAMSTER, LIVER, S-9, AROCLOR 1254 (10 OR 30%), Method: PREINCUBATION): inactive; negative
mutagenic call [5]: inactive; negative
mutagenic call (Test System: AMES SALMONELLA TYPHIMURIUM, Strain/Indicator: TA100, Metabolic Activation: RAT, LIVER, S-9, AROCLOR 1254 (10 OR 30%), Method: PREINCUBATION): inactive; negative
mutagenic call (Test System: AMES SALMONELLA TYPHIMURIUM, Strain/Indicator: TA1535, Metabolic Activation: HAMSTER, LIVER, S-9, AROCLOR 1254 (10 OR 30%), Method: PREINCUBATION): inactive; negative
mutagenic call [9]: inactive; negative
mutagenic call (Test System: AMES SALMONELLA TYPHIMURIUM, Strain/Indicator: TA1535, Metabolic Activation: RAT, LIVER, S-9, AROCLOR 1254 (10 OR 30%), Method: PREINCUBATION): inactive; negative

COc1cc2c(cc1O)CCN[C@]21CS[C@@H]2c3c(OC(C)=O)c(C)c4c(c3[C@H](COC1=O)N1[C@@H]2[C@H]2c3c(cc(C)c(OC)c3O)C[C@@H]([C@@H]1O)N2C)OCO4
mutagenic call (Test System: AMES SALMONELLA TYPHIMURIUM, Strain/Indicator: TA98, Metabolic Activation: HAMSTER, LIVER, S-9, AROCLOR 1254, Method: STANDARD PLATE): active; positive
mutagenic call [1]: inactive; negative
mutagenic call [2]: active; positive
mutagenic call (Test System: AMES SALMONELLA TYPHIMURIUM, Strain/Indicator: TA100, Metabolic Activation: HAMSTER, LIVER, S-9, AROCLOR 1254, Method: STANDARD PLATE): inactive; negative
mutagenic call [3]: inactive; negative
mutagenic call [4]: inactive; negative
mutagenic call [7]: active; positive
mutagenic call [8]: active; positive

Cc1ccc(N(O)C=O)cc1
mutagenic call [1]: inactive; negative
mutagenic call [2]: active; positive
mutagenic call [3]: inactive; negative
mutagenic call [4]: active; positive

COc1ccnc(=O)[nH]1
mutagenic call [3]: active; positive

Nc1ccccc1SCSc1ccccc1N
mutagenic call [1]: inactive; negative
mutagenic call [2]: inactive; negative
mutagenic call [3]: inactive; negative
mutagenic call [4]: active; positive

Oc1cc(O)c2c(c1)O[C@H](c1cc(O)c(O)c(O)c1)[C@H](O)C2
mutagenic call (End Point: In vitro chromosomal aberrations, Test System: Chinese hamster (CHL/IU) cells, Metabolic Activation: None): active; positive (structural changes: gaps, breaks, aberrations)
mutagenic call (Test System: Ames Salmonella typhimurium, Strain/Indicator: TA102, Metabolic Activation: None, Method: Preincubation): inactive; negative
mutagenic call (Test System: Ames Salmonella typhimurium, Strain/Indicator: TA102, Metabolic Activation: Rat, Liver, S-9, Aroclor 1254 in 0.154 M KCl, Method: Preincubation): inactive; negative
mutagenic call (Test System: E. coli, Strain/Indicator: WP2 uvrA/pKM101, Metabolic Activation: None, Method: Preincubation): inactive; negative

CC(C)=CCC[C@@](C)(O)[C@H]1CCC=CC1=O
mutagenic call (Test System: AMES SALMONELLA TYPHIMURIUM, Strain/Indicator: TM677, Metabolic Activation: NONE, Method: STANDARD PLATE): active; positive
mutagenic call (Test System: AMES SALMONELLA TYPHIMURIUM, Strain/Indicator: TM677, Metabolic Activation: RAT, LIVER, S-9, AROCLOR 1254, Method: STANDARD PLATE): active; positive
